# Results taken from PubChem BioAssay (NCI).
#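 Growth conditions: 96-well plates. Treatment: test compound, 48 hours, 5 concentrations. Analysis: linear interpolation between bracketing concentrations; unreached endpoints set to highest concentration. At the GI50, growth is halved. TGI marks complete inhibition of growth.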
# What was measured:
# Experiment in all cases: NCI-60 cell line screen, 48 h
# MDA-MB-435 = tested on: MDA-MB-435
# NCI-H522 lung = tested on: NCI-H522 lung
# TK-10 renal = tested on: TK-10 renal
# HCT-15 colon = tested on: HCT-15 colon
# OVCAR-3 ovarian = tested on: OVCAR-3 ovarian
# MOLT-4 leukemia = tested on: MOLT-4 leukemia
# A498 renal = tested on: A498 renal
# KM12 colon = tested on: KM12 colon
# K-562 leukemia = tested on: K-562 leukemia
# UO-31 renal = tested on: UO-31 renal
# M14 melanoma = tested on: M14 melanoma
# MALME-3M melanoma = tested on: MALME-3M melanoma
# SK-OV-3 ovarian = tested on: SK-OV-3 ovarian
# HCC-2998 colon = tested on: HCC-2998 colon
# IGROV1 ovarian = tested on: IGROV1 ovarian
# SF-268 CNS = tested on: SF-268 CNS
# SNB-75 CNS = tested on: SNB-75 CNS
# NCI-H460 lung = tested on: NCI-H460 lung
# CCRF-CEM leukemia = tested on: CCRF-CEM leukemia
# OVCAR-4 ovarian = tested on: OVCAR-4 ovarian
# OVCAR-8 ovarian = tested on: OVCAR-8 ovarian
# MCF7 breast = tested on: MCF7 breast
# SN12C renal = tested on: SN12C renal
# UACC-257 melanoma = tested on: UACC-257 melanoma
# COLO 205 colon = tested on: COLO 205 colon
# SK-MEL-2 melanoma = tested on: SK-MEL-2 melanoma
# MDA-MB-231 breast = tested on: MDA-MB-231 breast
# U251 CNS = tested on: U251 CNS
# HL-60(TB) leukemia = tested on: HL-60(TB) leukemia
# HOP-62 NSCLC = tested on: HOP-62 NSCLC
# ACHN renal = tested on: ACHN renal
# SNB-19 CNS = tested on: SNB-19 CNS
# HCT-116 colon = tested on: HCT-116 colon
# SK-MEL-5 melanoma = tested on: SK-MEL-5 melanoma
# SW-620 colon = tested on: SW-620 colon
# NCI-H226 lung = tested on: NCI-H226 lung
# SF-539 CNS = tested on: SF-539 CNS
# 786-0 renal = tested on: 786-0 renal
# DU-145 prostate = tested on: DU-145 prostate
# RPMI-8226 leukemia = tested on: RPMI-8226 leukemia
# NCI/ADR-RES ovarian = tested on: NCI/ADR-RES ovarian
# BT-549 breast = tested on: BT-549 breast
# HS 578T breast = tested on: HS 578T breast
# SK-MEL-28 melanoma = tested on: SK-MEL-28 melanoma
# LOX IMVI melanoma = tested on: LOX IMVI melanoma
# CAKI-1 renal = tested on: CAKI-1 renal
# UACC-62 melanoma = tested on: UACC-62 melanoma
# OVCAR-5 ovarian = tested on: OVCAR-5 ovarian
# RXF 393 renal = tested on: RXF 393 renal
# T-47D breast = tested on: T-47D breast
# SF-295 CNS = tested on: SF-295 CNS
# A549 NSCLC = tested on: A549 NSCLC
# EKVX NSCLC = tested on: EKVX NSCLC
# HOP-92 NSCLC = tested on: HOP-92 NSCLC
# PC-3 prostate = tested on: PC-3 prostate
# NCI-H23 lung = tested on: NCI-H23 lung
# HT29 colon = tested on: HT29 colon
structure (smiles),measurement,setting,value
N#Cc1cc(-c2nc3cc(F)ccc3s2)ccc1N,TGI,MDA-MB-435,> 100 µM
same,TGI,NCI-H522 lung,> 100 µM
same,TGI,TK-10 renal,1.69 µM
same,TGI,HCT-15 colon,> 100 µM
same,TGI,OVCAR-3 ovarian,> 100 µM
same,TGI,MOLT-4 leukemia,> 100 µM
same,TGI,A498 renal,> 56.4 µM
same,TGI,KM12 colon,> 32.8 µM
same,TGI,K-562 leukemia,> 100 µM
same,TGI,UO-31 renal,> 100 µM
same,TGI,M14 melanoma,99.7 µM
same,TGI,MALME-3M melanoma,> 100 µM
same,TGI,SK-OV-3 ovarian,> 92.3 µM
same,TGI,HCC-2998 colon,0.0604 µM
same,TGI,IGROV1 ovarian,13.9 µM
same,TGI,SF-268 CNS,> 78.3 µM
same,TGI,SNB-75 CNS,6.68 µM
same,TGI,NCI-H460 lung,17.8 µM
same,TGI,CCRF-CEM leukemia,> 100 µM
same,TGI,OVCAR-4 ovarian,> 93.5 µM
same,TGI,OVCAR-8 ovarian,> 100 µM
same,TGI,MCF7 breast,0.583 µM
same,TGI,SN12C renal,> 100 µM
same,TGI,UACC-257 melanoma,> 100 µM
same,TGI,COLO 205 colon,> 100 µM
same,TGI,SK-MEL-2 melanoma,> 66.8 µM
same,TGI,MDA-MB-231 breast,> 85.1 µM
same,TGI,U251 CNS,> 82.1 µM
same,TGI,HL-60(TB) leukemia,> 100 µM
same,TGI,HOP-62 NSCLC,> 100 µM
same,TGI,ACHN renal,62.5 µM
same,TGI,SNB-19 CNS,> 66.6 µM
same,TGI,HCT-116 colon,> 100 µM
same,TGI,SK-MEL-5 melanoma,> 100 µM
same,TGI,SW-620 colon,> 100 µM
same,TGI,NCI-H226 lung,79.3 µM
same,TGI,SF-539 CNS,56.7 µM
same,TGI,786-0 renal,> 100 µM
same,TGI,DU-145 prostate,> 100 µM
same,TGI,RPMI-8226 leukemia,> 100 µM
same,TGI,NCI/ADR-RES ovarian,> 100 µM
same,TGI,BT-549 breast,29.1 µM
same,TGI,HS 578T breast,> 100 µM
same,TGI,SK-MEL-28 melanoma,> 100 µM
same,TGI,LOX IMVI melanoma,> 100 µM
same,TGI,CAKI-1 renal,> 100 µM
same,TGI,UACC-62 melanoma,> 87.7 µM
same,TGI,OVCAR-5 ovarian,2.9 µM
same,TGI,RXF 393 renal,14.1 µM
same,TGI,T-47D breast,0.22 µM
same,TGI,SF-295 CNS,> 100 µM
same,TGI,A549 NSCLC,> 68.4 µM
same,TGI,EKVX NSCLC,98.8 µM
same,TGI,HOP-92 NSCLC,29.6 µM
same,TGI,PC-3 prostate,> 100 µM
same,TGI,NCI-H23 lung,0.848 µM
same,TGI,HT29 colon,> 100 µM
CC1=C2[C@H]3OC(=O)[C@@H](C)[C@@H]3CC[C@@]2(C)C=CC1=O,GI50,MDA-MB-435,> 100 µM
same,TGI,MDA-MB-435,> 100 µM
same,GI50,TK-10 renal,> 100 µM
same,TGI,TK-10 renal,> 100 µM
same,GI50,HCT-15 colon,> 100 µM
same,TGI,HCT-15 colon,> 100 µM
same,GI50,OVCAR-3 ovarian,> 100 µM
same,TGI,OVCAR-3 ovarian,> 100 µM
same,GI50,MOLT-4 leukemia,> 100 µM
same,TGI,MOLT-4 leukemia,> 100 µM
same,GI50,A498 renal,> 100 µM
same,TGI,A498 renal,> 100 µM
same,GI50,KM12 colon,> 100 µM
same,TGI,KM12 colon,> 100 µM
same,GI50,K-562 leukemia,> 100 µM
same,TGI,K-562 leukemia,> 100 µM
same,GI50,M14 melanoma,> 100 µM
same,TGI,M14 melanoma,> 100 µM
same,GI50,SK-OV-3 ovarian,> 100 µM
same,TGI,SK-OV-3 ovarian,> 100 µM
same,GI50,IGROV1 ovarian,> 100 µM
same,TGI,IGROV1 ovarian,> 100 µM
same,GI50,SF-268 CNS,> 100 µM
same,TGI,SF-268 CNS,> 100 µM
same,GI50,SNB-75 CNS,> 100 µM
same,TGI,SNB-75 CNS,> 100 µM
same,GI50,NCI-H460 lung,> 100 µM
same,TGI,NCI-H460 lung,> 100 µM
same,GI50,CCRF-CEM leukemia,> 100 µM
same,TGI,CCRF-CEM leukemia,> 100 µM
same,GI50,OVCAR-4 ovarian,> 100 µM
same,TGI,OVCAR-4 ovarian,> 100 µM
same,GI50,OVCAR-8 ovarian,> 100 µM
same,TGI,OVCAR-8 ovarian,> 100 µM
same,GI50,MCF7 breast,> 100 µM
same,TGI,MCF7 breast,> 100 µM
same,GI50,SN12C renal,> 100 µM
same,TGI,SN12C renal,> 100 µM
same,GI50,UACC-257 melanoma,> 100 µM
same,TGI,UACC-257 melanoma,> 100 µM
same,GI50,COLO 205 colon,> 100 µM
same,TGI,COLO 205 colon,> 100 µM
same,GI50,SK-MEL-2 melanoma,> 100 µM
same,TGI,SK-MEL-2 melanoma,> 100 µM
same,GI50,MDA-MB-231 breast,> 100 µM
same,TGI,MDA-MB-231 breast,> 100 µM
same,GI50,U251 CNS,> 100 µM
same,TGI,U251 CNS,> 100 µM
same,GI50,HL-60(TB) leukemia,> 100 µM
same,TGI,HL-60(TB) leukemia,> 100 µM
same,GI50,HOP-62 NSCLC,> 100 µM
same,TGI,HOP-62 NSCLC,> 100 µM
same,GI50,ACHN renal,> 100 µM
same,TGI,ACHN renal,> 100 µM
same,GI50,SNB-19 CNS,> 100 µM
same,TGI,SNB-19 CNS,> 100 µM
same,GI50,HCT-116 colon,> 100 µM
same,TGI,HCT-116 colon,> 100 µM
same,GI50,SK-MEL-5 melanoma,> 100 µM
same,TGI,SK-MEL-5 melanoma,> 100 µM
same,GI50,SW-620 colon,> 100 µM
same,TGI,SW-620 colon,> 100 µM
same,GI50,NCI-H226 lung,> 100 µM
same,TGI,NCI-H226 lung,> 100 µM
same,GI50,SF-539 CNS,> 100 µM
same,TGI,SF-539 CNS,> 100 µM
same,GI50,786-0 renal,> 100 µM
same,TGI,786-0 renal,> 100 µM
same,GI50,DU-145 prostate,> 100 µM
same,TGI,DU-145 prostate,> 100 µM
same,GI50,RPMI-8226 leukemia,> 100 µM
same,TGI,RPMI-8226 leukemia,> 100 µM
same,GI50,NCI/ADR-RES ovarian,> 100 µM
same,TGI,NCI/ADR-RES ovarian,> 100 µM
same,GI50,BT-549 breast,> 100 µM
same,TGI,BT-549 breast,> 100 µM
same,GI50,HS 578T breast,> 100 µM
same,TGI,HS 578T breast,> 100 µM
same,GI50,SK-MEL-28 melanoma,> 100 µM
same,TGI,SK-MEL-28 melanoma,> 100 µM
same,GI50,LOX IMVI melanoma,> 100 µM
same,TGI,LOX IMVI melanoma,> 100 µM
same,GI50,CAKI-1 renal,> 100 µM
same,TGI,CAKI-1 renal,> 100 µM
same,GI50,UACC-62 melanoma,> 100 µM
same,TGI,UACC-62 melanoma,> 100 µM
same,GI50,OVCAR-5 ovarian,> 100 µM
same,TGI,OVCAR-5 ovarian,> 100 µM
same,GI50,RXF 393 renal,> 100 µM
same,TGI,RXF 393 renal,> 100 µM
same,GI50,T-47D breast,> 100 µM
same,TGI,T-47D breast,> 100 µM
same,GI50,SF-295 CNS,> 100 µM
same,TGI,SF-295 CNS,> 100 µM
same,GI50,A549 NSCLC,> 100 µM
same,TGI,A549 NSCLC,> 100 µM
same,GI50,EKVX NSCLC,> 100 µM
same,TGI,EKVX NSCLC,> 100 µM
same,GI50,HOP-92 NSCLC,> 100 µM
same,TGI,HOP-92 NSCLC,> 100 µM
same,GI50,PC-3 prostate,> 100 µM
same,TGI,PC-3 prostate,> 100 µM
same,GI50,NCI-H23 lung,> 100 µM
same,TGI,NCI-H23 lung,> 100 µM
same,GI50,HT29 colon,> 100 µM
same,TGI,HT29 colon,> 100 µM
